{"source": "BindingDB's records for doi:10.1016/j.bmcl.2013.03.093", "about": "(Rhône-Poulenc Rorer, 2013)", "data": [{"experiment": "Antagonist activity at CRTh2 receptor in human whole blood assessed as inhibition of PGD2-induced eosinophil shape change preincubated for 10 mins followed by PGD2 addition measured after 4 mins by side scatter analysis", "units": {"IC50": "nM"}, "values": [{"smiles": "Cc1nn(Cc2ccccc2S(=O)(=O)c2ccccc2)c(C)c1CC(=O)O", "IC50": 1700}, {"smiles": "Cc1c(CC(=O)O)c(=O)[nH]n1Cc1ccccc1S(=O)(=O)c1ccccc1", "IC50": 1000}, {"smiles": "Cc1c(CC(=O)O)c(-c2ccc(Cl)cc2)nn1Cc1ccccc1S(=O)(=O)c1ccccc1", "IC50": 8100}, {"smiles": "Cc1c(CC(=O)O)c(-c2ccccc2)nn1Cc1ccccc1S(=O)(=O)c1ccccc1", "IC50": 2400}, {"smiles": "Cc1nn(-c2cccc(NC(=O)[C@H]3C[C@@H]3c3ccccc3)c2)c(C)c1CC(=O)O", "IC50": 2100}]}]}
